# Assay results published in ChEMBL document CHEMBL1201862, “PubChem BioAssay data set” (2004).
# The source made the active and inactive calls.
# Legend:
# [1] = target: SUMO-activating enzyme (Homo sapiens, UniProt Q9UBT2); test: SUMOylation inhibitor hit validation, confirmation, SUMOylation inhibitor project, biochemical, AlphaScreen (AID 2018); assay type: functional
# [2] = target: T1, Hexokinase HKDC1 (Homo sapiens, UniProt Q2TB90); test: HKDC1 hexokinase inhibitors, SAR follow-up, biochemical, set 2 (AID 588355); assay type: functional
# T1 sequence (Q2TB90 whole entry): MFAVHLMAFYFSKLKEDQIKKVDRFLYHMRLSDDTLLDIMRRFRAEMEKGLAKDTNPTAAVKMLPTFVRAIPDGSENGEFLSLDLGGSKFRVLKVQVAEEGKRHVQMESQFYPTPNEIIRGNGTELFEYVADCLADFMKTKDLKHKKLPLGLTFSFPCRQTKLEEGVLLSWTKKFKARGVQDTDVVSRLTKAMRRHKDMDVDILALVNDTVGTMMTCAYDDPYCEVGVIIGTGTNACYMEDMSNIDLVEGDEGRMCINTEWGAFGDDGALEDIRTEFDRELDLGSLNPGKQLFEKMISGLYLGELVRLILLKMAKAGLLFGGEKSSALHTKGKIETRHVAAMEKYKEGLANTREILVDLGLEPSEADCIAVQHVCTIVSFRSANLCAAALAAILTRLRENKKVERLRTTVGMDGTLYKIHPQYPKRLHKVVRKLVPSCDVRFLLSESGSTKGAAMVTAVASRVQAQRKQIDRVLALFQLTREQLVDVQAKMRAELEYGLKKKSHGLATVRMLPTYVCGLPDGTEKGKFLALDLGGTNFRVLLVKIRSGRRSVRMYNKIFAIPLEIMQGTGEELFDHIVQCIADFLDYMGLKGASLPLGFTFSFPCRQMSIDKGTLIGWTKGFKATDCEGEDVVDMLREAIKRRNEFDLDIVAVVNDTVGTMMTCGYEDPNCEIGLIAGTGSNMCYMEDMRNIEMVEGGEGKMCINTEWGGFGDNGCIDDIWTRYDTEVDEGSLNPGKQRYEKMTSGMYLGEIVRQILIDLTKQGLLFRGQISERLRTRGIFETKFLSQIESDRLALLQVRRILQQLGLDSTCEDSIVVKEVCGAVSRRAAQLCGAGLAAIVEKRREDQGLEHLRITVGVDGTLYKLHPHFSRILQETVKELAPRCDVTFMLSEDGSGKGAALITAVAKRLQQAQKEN
# [3] = target: Heat shock 70 kDa protein 1A (Homo sapiens, UniProt P0DMV8); test: Hsp70 inhibitors, SAR follow-up, biochemical, fluorescence polarization (AID 1072)
# [4] = target: Large T antigen (Simian virus 40, UniProt P03070); assay type: functional, Betapolyomavirus macacae;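 further: Confirmatory-stage PubChem screen for compounds that inhibit SV40 T antigen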
# [5] = target: T2, Sentrin-specific protease 7 (Homo sapiens, UniProt Q9BQF6); test: SENP7 protease inhibitors, SAR follow-up, biochemical, luminescence (AID 504497); assay type: functional
# T2 sequence (Q9BQF6 whole entry): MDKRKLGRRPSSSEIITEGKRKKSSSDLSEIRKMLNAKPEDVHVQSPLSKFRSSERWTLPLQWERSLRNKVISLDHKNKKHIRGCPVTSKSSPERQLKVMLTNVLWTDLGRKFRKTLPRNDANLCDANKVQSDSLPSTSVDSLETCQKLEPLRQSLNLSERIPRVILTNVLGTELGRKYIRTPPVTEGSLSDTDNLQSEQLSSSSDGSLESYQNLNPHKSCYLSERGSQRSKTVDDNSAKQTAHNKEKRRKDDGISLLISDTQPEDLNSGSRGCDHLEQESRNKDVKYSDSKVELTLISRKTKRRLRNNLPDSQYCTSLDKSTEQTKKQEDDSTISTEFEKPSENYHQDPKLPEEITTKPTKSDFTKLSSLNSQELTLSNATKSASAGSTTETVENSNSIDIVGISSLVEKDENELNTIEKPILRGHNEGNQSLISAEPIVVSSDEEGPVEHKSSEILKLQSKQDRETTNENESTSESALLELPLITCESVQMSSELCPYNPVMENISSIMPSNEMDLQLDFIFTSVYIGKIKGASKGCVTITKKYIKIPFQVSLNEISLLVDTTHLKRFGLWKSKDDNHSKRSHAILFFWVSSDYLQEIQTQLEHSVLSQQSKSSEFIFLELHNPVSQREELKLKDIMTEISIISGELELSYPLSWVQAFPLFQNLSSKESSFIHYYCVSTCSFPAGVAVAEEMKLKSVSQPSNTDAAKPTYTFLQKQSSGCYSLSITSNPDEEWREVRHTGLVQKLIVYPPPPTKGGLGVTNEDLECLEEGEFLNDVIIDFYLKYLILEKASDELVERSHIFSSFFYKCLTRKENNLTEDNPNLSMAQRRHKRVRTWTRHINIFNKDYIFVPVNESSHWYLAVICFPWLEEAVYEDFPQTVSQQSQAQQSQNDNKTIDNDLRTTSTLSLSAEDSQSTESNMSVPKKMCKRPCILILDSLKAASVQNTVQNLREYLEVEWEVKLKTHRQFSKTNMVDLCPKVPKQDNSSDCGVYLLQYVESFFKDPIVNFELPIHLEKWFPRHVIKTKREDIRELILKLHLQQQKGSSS
# [6] = target: T3, Intestinal-type alkaline phosphatase (Homo sapiens, UniProt P09923); test: Dose Response confirmation of uHTS hits from a small molecule inhibitors of human intestinal alkaline phosphatase via a luminescent assay. [Related pubchem assays (depositor defined):AID2544, AID2574]; assay type: functional
# [7] = target: T3, Intestinal-type alkaline phosphatase; test: human IAP inhibitors, dose response, biochemical, luminescent, uHTS hits, set 2 (AID 488793); assay type: functional
# [8] = target: Serine/threonine-protein kinase pim-3 (Homo sapiens, UniProt Q86V86); assay type: functional;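 further: value obtained as one member of a broad kinase panel profiling effort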
# [9] = target: Serine/threonine-protein kinase pim-1 (Homo sapiens, UniProt P11309); assay type: functional
# [10] = target: Serine/threonine-protein kinase PLK4 (Homo sapiens, UniProt O00444); assay type: functional;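 further: PLK4 measured as one member of a kinome-wide kinase profiling panel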
# [11] = target: Serine/threonine-protein kinase PLK1 (Homo sapiens, UniProt P53350); assay type: functional;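 further: PLK1 measured as one member of a kinome-wide profiling panel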
# [12] = target: Serine/threonine-protein kinase PAK 1 (Homo sapiens, UniProt Q13153); assay type: functional
# [13] = target: Mitogen-activated protein kinase 1 (Homo sapiens, UniProt P28482); assay type: functional
# [14] = target: Serine/threonine-protein kinase MRCK alpha (Homo sapiens, UniProt Q5VT25); assay type: functional
# [15] = target: Proto-oncogene tyrosine-protein kinase receptor Ret (Homo sapiens, UniProt P07949); assay type: functional;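 further: measured within a kinome-wide profiling panel, RET as the panel member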
# [16] = target: Ephrin type-A receptor 2 (Homo sapiens, UniProt P29317); assay type: functional;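 further: EPHA2 tested as one member of a kinome-wide kinase panel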
# [17] = target: Tyrosine-protein kinase Lck (Homo sapiens, UniProt P06239); assay type: functional;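 further: lck was assayed as one member of a kinase panel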
# Tyrosine-protein kinase Lck, sequence (P06239 whole entry): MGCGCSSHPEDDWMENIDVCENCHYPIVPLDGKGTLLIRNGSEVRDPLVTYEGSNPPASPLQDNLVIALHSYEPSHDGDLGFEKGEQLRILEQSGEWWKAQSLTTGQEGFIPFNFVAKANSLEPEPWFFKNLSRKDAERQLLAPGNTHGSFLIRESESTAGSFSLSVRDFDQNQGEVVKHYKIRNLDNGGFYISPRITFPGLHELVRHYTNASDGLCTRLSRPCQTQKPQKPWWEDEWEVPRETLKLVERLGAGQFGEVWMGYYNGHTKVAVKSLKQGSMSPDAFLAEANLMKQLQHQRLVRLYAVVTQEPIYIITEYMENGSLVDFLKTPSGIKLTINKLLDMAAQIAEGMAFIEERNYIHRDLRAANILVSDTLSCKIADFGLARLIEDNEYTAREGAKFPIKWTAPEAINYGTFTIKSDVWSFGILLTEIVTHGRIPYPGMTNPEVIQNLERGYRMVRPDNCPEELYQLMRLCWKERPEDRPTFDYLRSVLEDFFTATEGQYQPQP
# T3 sequence (P09923 whole entry): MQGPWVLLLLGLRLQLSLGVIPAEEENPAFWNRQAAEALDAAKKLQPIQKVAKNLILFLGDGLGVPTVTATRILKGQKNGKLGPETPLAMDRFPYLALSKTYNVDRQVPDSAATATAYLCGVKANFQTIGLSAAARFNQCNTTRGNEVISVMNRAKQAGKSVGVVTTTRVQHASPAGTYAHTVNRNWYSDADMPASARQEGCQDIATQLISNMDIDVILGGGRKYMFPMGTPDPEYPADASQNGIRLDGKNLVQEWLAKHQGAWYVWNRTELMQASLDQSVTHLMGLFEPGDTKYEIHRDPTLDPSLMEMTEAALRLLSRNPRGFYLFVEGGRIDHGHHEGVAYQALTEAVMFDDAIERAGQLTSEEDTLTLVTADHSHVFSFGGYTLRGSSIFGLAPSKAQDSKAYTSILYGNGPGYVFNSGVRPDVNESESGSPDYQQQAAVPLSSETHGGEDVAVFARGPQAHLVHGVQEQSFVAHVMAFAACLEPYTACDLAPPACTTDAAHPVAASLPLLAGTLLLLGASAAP
# Serine/threonine-protein kinase MRCK alpha, sequence (Q5VT25 whole entry): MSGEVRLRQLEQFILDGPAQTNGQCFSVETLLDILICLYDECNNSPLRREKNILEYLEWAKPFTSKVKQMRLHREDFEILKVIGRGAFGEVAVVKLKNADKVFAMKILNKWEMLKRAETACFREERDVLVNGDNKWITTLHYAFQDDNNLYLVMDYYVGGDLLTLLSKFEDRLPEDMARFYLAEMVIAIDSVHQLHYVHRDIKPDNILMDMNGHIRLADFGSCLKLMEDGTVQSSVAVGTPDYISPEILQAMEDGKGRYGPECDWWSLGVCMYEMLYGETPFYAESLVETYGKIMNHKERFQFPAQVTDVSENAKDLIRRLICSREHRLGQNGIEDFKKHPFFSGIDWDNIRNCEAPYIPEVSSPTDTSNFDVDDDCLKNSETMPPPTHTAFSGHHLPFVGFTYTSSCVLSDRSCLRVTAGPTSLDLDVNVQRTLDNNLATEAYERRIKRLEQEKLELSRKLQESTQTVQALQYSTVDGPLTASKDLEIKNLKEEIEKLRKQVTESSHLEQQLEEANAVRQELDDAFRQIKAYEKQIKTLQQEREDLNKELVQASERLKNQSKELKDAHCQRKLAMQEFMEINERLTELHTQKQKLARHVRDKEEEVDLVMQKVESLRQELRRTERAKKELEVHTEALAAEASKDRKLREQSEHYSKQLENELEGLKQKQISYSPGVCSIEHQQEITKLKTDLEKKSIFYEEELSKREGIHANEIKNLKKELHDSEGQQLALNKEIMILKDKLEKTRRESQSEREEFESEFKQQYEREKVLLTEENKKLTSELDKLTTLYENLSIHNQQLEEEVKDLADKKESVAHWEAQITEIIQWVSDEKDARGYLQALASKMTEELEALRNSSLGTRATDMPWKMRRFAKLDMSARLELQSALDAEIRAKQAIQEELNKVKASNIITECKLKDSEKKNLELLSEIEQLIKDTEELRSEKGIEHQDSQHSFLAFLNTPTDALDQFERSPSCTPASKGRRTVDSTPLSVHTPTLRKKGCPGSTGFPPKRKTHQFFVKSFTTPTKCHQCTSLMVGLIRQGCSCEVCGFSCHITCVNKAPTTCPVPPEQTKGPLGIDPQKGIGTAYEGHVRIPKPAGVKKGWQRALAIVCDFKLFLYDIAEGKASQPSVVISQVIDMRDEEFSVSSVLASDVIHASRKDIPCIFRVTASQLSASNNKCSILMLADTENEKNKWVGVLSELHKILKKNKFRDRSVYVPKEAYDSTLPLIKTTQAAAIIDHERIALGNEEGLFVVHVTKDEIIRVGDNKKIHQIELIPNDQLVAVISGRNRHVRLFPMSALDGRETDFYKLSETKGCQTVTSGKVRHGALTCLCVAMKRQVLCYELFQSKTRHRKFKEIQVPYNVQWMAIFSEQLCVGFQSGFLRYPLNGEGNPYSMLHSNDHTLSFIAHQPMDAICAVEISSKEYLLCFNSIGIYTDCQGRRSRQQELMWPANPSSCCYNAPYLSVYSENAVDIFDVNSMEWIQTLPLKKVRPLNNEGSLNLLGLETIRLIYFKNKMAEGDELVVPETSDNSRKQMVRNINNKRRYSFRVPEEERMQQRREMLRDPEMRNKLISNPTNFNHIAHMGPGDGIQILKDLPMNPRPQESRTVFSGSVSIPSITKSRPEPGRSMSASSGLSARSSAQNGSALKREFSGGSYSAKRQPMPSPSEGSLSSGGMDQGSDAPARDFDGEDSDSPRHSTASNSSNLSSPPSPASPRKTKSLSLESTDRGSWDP
# Mitogen-activated protein kinase 1, sequence (P28482 whole entry): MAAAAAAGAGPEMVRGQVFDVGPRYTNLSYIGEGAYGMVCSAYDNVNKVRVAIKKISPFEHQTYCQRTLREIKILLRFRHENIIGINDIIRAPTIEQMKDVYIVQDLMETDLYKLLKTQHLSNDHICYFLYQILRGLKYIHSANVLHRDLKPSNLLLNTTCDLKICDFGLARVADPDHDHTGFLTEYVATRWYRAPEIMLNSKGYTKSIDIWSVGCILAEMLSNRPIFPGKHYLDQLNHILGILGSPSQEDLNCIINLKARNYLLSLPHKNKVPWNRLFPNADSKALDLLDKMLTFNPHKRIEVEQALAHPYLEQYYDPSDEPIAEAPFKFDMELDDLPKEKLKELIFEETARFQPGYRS
# Serine/threonine-protein kinase pim-1, sequence (P11309 whole entry): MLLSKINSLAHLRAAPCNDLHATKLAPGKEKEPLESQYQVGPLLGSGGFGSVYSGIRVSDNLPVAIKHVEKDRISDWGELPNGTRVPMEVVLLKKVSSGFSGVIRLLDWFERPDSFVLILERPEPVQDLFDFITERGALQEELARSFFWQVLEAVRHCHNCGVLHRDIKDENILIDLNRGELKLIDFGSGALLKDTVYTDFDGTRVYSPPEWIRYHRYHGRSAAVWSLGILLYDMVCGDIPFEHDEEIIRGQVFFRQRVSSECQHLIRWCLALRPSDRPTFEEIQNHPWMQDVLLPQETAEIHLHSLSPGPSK
# Serine/threonine-protein kinase PLK1, sequence (P53350 whole entry): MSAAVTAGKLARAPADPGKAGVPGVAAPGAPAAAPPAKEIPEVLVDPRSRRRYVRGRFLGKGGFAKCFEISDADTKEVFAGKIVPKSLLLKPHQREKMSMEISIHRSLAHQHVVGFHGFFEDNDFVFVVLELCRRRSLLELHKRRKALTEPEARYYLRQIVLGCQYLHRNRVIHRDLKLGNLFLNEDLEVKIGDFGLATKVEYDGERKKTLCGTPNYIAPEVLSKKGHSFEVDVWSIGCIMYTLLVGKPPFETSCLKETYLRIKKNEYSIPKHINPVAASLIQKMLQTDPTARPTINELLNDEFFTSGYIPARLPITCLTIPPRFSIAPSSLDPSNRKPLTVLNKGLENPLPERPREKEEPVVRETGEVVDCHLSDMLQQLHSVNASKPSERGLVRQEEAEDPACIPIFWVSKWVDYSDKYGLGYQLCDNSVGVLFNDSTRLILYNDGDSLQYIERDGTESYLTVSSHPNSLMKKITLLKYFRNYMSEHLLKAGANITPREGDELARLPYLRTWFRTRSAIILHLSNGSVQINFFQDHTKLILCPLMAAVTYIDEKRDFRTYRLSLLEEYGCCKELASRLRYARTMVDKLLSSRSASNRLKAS
# Large T antigen, sequence (P03070 whole entry): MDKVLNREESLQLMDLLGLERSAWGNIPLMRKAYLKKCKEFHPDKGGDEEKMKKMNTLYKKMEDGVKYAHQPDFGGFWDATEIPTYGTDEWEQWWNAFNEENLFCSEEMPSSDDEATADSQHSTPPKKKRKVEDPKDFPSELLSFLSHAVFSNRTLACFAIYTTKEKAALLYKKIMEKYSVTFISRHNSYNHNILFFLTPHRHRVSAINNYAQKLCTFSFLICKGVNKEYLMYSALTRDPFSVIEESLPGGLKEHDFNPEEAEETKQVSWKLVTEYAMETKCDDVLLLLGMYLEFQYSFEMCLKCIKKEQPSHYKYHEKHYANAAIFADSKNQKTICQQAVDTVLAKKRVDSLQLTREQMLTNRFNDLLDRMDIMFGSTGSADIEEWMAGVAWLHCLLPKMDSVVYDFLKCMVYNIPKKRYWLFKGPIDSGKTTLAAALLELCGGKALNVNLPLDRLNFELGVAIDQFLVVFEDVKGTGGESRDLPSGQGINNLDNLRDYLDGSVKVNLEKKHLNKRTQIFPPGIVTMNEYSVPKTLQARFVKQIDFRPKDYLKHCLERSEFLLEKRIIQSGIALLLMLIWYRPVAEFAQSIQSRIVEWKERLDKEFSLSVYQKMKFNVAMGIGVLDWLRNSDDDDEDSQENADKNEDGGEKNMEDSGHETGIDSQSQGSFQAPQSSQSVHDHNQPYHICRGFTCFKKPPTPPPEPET
smiles,measurement,setting,value
CC(=O)NC1C(=O)N(CCN2CCOCC2)c2ccc(F)cc21 (stereo not drawn),IC50,[1],5.82 µM (active)
same,IC50,[2],14.9 µM (active)
O=C(O)C1Nc2c(O)cc(Cl)c([N+](=O)[O-])c2C2C=CCC12 (stereo not drawn),IC50,[3],22.4 µM (active)
same,IC50,[4],9.86 µM (active)
O=C(CCc1ccccc1)NNc1cc(N2CCCCC2)nc(N2CCCCC2)n1,IC50,[5],57.9 µM (active)
Oc1ccc(N=Nc2c(O)ccc3ccccc23)cc1,IC50,[6],17.7 µM (inactive)
same,IC50,[7],15.5 µM (active)
Cc1n[nH]c2ccc(-c3cncc(OCC(N)Cc4cccc(Cl)c4)c3)cc12 (stereo not drawn),Ki,[8],0.01 µM (active)
same,Ki,[9],0.00501 µM (active)
same,Ki,[10],1.26 µM (active)
same,Ki,[11],> 7.94 µM (inactive)
same,Ki,[12],0.631 µM (active)
same,Ki,[13],0.0794 µM (active)
same,Ki,[14],0.00794 µM (active)
same,pKi,[14],8.1
same,Ki,[15],1 µM (active)
same,Ki,[16],> 3.16 µM (inactive)
same,Ki,[17],> 2.51 µM (inactive)
